Assay results as given in US9107413B2, “Pesticidal compositions and processes related thereto” (priority 2011, dated 2015).
Like-named read-outs stand apart in the source and are kept apart here.

Columns and labels:
Assay type in all cases: in vivo
BAW (Spodoptera exigua) = assay: Bioassay on beet armyworm (BAW), 128-well diet tray assay; conditions: 168 h, read-out: % Mortality BAW 50 μg/cm^2
Description: (§1) Certain molecules disclosed in this document were tested against BAW and CEW using procedures described in the following examples. In the reporting of the results, the “BAW & CEW Rating Table” was used (See Table Section).
Bioassays on BAW (Spodoptera exigua)
Bioassays on BAW were conducted using a 128-well diet tray assay. […] Trays were covered with a clear self-adhesive cover and held at 25° C., 14:10 light-dark for five to seven days. Percent mortality was recorded for the larvae in each well; activity in the eight wells was then averaged. The results are indicated in the table entitled “Table 5: Biological Results” (See Table Section).

CEW (Helicoverpa zea) = assay: Bioassay on corn earworm (CEW), 128-well diet tray assay; conditions: 168 h, read-out: % Mortality CEW 50 μg/cm^2
Description: as §1
Bioassays on CEW (Helicoverpa zea)
Bioassays on CEW were conducted using a 128-well diet tray assay. […] Trays were covered with a clear self-adhesive cover and held at 25° C., 14:10 light-dark for five to seven days. Percent mortality was recorded for the larvae in each well; activity in the eight wells was then averaged. The results are indicated in the table entitled “Table 5: Biological Results” (See Table Section).

GPA (Myzus persicae) = assay: Bioassay on green peach aphid (GPA), foliar spray on cabbage seedlings; conditions: 72 h, read-out: % Mortality GPA 200 ppm
Description: Certain molecules disclosed in this document were tested against GPA using procedures described in the following example. In the reporting of the results, the “GPA Rating Table” was used (See Table Section).
Cabbage seedlings grown in 3-inch pots, with 2-3 small (3-5 cm) true leaves, were used as test substrate. The seedlings were infested with 20-50 GPA (wingless adult and nymph stages) one day prior to chemical application. Four pots with individual seedlings were used for each treatment. Test compounds (2 mg) were dissolved in 2 mL of acetone/methanol (1:1) solvent, forming stock solutions of 1000 ppm test compound. […] A hand-held aspirator-type sprayer was used for spraying a solution to both sides of […] leaves until runoff. Reference plants (solvent check) were sprayed with the diluent only containing 20% by volume of acetone/methanol (1:1) solvent. Treated plants were held in a holding room for three days at approximately 25° C. and ambient relative humidity (RH) prior to grading. Evaluation was conducted by counting the number of live aphids per plant under a microscope. […] Corrected % Control=100*(X−Y)/X • where • X=No. of live aphids on solvent check plants and • Y=No. of live aphids on treated plants
The results are indicated in the table entitled “Table 5: Biological Results” (See Table Section).

[1] = 50 μg/cm^2 on artificial diet, second instar larvae, five to seven days, 25° C.
[2] = 200 ppm foliar spray on cabbage seedlings, three days, Abbott corrected % control

| SMILES | mortality at 50 µg/cm2 (BAW (Spodoptera exigua)) [%] | mortality at 50 µg/cm2 (CEW (Helicoverpa zea)) [%] | mortality at 200 ppm (GPA (Myzus persicae); foliar) [%] | mortality at 50 µg/cm2 (BAW (Spodoptera exigua); [1]) [%] | mortality at 50 µg/cm2 (CEW (Helicoverpa zea); [1]) [%] | mortality at 200 ppm (GPA (Myzus persicae); [2]) [%] |
| --- | --- | --- | --- | --- | --- | --- |
| Cc1cccc(C)c1/N=C(/N/N=C/c1ccc(-c2ncn(-c3ccc(OC(F)(F)F)cc3)n2)cc1)SCC#C[Si](C)(C)C [Compound 9C] | 50 to 100 | 50 to 100 | 0 | – | – | – |
| Cc1cccc(C)c1/N=C(/N/N=C/c1ccc(-c2ncn(-c3ccc(OC(F)(F)F)cc3)n2)cc1)SCOC(=O)CNC(=O)OCc1ccccc1 [Compound 23C] | 50 to 100 | 50 to 100 | 0 | – | – | – |
| COc1cc(C)c(/N=C(/N/N=C/c2ccc(-c3ncn(-c4ccc(OC(F)(F)F)cc4)n3)cc2)SCOC(=O)CNC(=O)OCc2ccccc2)c(C)c1 [Compound 28C] | 50 to 100 | 50 to 100 | 0 to 80 | – | – | – |
| COc1cc(C)c(/N=C(\N/N=C/c2ccc(-c3ncn(-c4ccc(C(F)(F)F)cc4)n3)cc2)SCOC(=O)CNC(=O)OCc2ccccc2)c(C)c1 [Compound 45C] | 50 to 100 | 50 to 100 | – | – | – | – |
| COc1cc(C)c(/N=C(/N/N=C/c2ccc(-c3ncn(-c4ccc(OC(F)(F)F)cc4)n3)cc2)SCC(=O)N2CCNCC2)c(C)c1 [Compound 65C] | – | – | – | 50 to 100 | 50 to 100 | 0 to 80 |
| CC(C)c1ccccc1N1C(=O)CS/C1=N\N=C\c1ccc(-c2ncn(-c3ccc(OC(F)(F)F)cc3)n2)cc1 [Compound 73C] | – | – | – | 50 to 100 | 50 to 100 | 0 to 80 |
| C/C(=N\N=C1/SCC(=O)N1c1ccccc1C(C)C)c1ccc(-c2ncn(-c3ccc(OC(F)(F)F)cc3)n2)cc1 [Compound 122C] | – | – | – | 50 to 100 | 50 to 100 | – |
| FC(F)Oc1ccccc1N1CCCS/C1=N\N=C\c1ccc(-c2ncn(-c3ccc(OC(F)(F)F)cc3)n2)cc1 [Compound 200C] | – | – | – | 50 to 100 | 50 to 100 | – |
| Cc1cccc(Cl)c1N1/C(=N/N=C/c2ccc(-c3ncn(-c4ccc(OC(F)(F)F)cc4)n3)cc2)SCCC1C (stereo not shown) [Compound 227C] | – | – | – | 50 to 100 | 50 to 100 | – |
| CC1CCS/C(=N\N=C\c2ccc(-c3ncn(-c4ccc(OC(F)(F)F)cc4)n3)cc2)N1c1ccccc1OC(C)(F)F (stereo not shown) [Compound 229C] | – | – | – | 50 to 100 | 50 to 100 | – |
